These are literature values, as cited in patent US9949922B2, “Silica hydrogel composite” (DELSITECH OY, priority 2013, dated 2018).

The conditions of this data set: nimodipine value from DrugBank.

As for `O=C1OC2(c3ccc(O)cc3Oc3cc(O)ccc32)c2ccccc21` [Fluorescein], the Water solubility is 800 µg/mL.
